The term IC50 denotes the concentration that gives 50% inhibition. Low values mean higher potency, high ones lower potency. As a reminder, the EC50 is the concentration giving half of the maximal effect. A higher EC50 goes with a need for much substance.

One series deals with T1, CYP2C19 (Homo sapiens, UniProt P33261).
T1 construct: enzyme, pooled human hepatic microsome 0.2 mg protein/mL; from tissue; host or cells: pooled human liver microsomes
Description: CYP inhibition assay, mephenytoin 4'-hydroxylation. Type of series: in vitro ADME. To be noted: pooled human liver microsomes, probe S-mephenytoin (4'-hydroxylation), 50 μmol/L, pooled human hepatic microsome. The method, then: Using commercially available pooled human hepatic microsome, and employing, as markers, 7-ethoxyresorufin O-deethylation (CYP1A2), tolbutamide methyl-hydroxylation (CYP2C9), mephenytoin 4′-hydroxylation (CYP2C19), dextromethorphan O-demethylation (CYP2D6), and terfenedine hydroxylation (CYP3A4) as typical substrate metabolism reactions of human main five CYP enzyme forms (CYP1A2, 2C9, 2C19, 2D6, 3A4), an inhibitory degree of each metabolite production amount by a test compound was assessed.
The reaction conditions were as follows: substrate, 0.5 μmol/L ethoxyresorufin (CYP1A2), 100 μmol/L tolbutamide (CYP2C9), 50 μmol/L S-mephenytoin (CYP2C19), 5 μmol/L dextromethorphan (CYP2D6), 1 μmol/L terfenedine (CYP3A4); reaction time, 15 minutes; reaction temperature, 37° C.; enzyme, pooled human hepatic microsome 0.2 mg protein/mL; test drug concentration, 1, 5, 10, 20 μmol/L (four points).
Each five kinds of substrates, human hepatic microsome, and a test drug in 50 mmol/L Hepes buffer as a reaction solution was added to a 96-well plate as the composition as described above, NADPH, as a cofactor was added to initiate metabolism reactions as markers and, after the incubation at 37° C. for 15 minutes, a methanol/acetonitrile=1/1 (v/v) solution was added to stop the reaction. After the centrifugation at 3000 rpm for 15 minutes, resorufin (CYP1A2 metabolite) in the supernatant was quantified by a fluorescent multilabel counter and tolbutamide hydroxide (CYP2C9 metabolite), mephenytoin 4′ hydroxide (CYP2C19 metabolite), dextrorphan (CYP2D6 metabolite), and terfenadine alcohol (CYP3A4 metabolite) were quantified by LC/MS/MS.
A reaction system containing only DMSO which is a solvent for dissolving a drug was adopted as a control (100%), and the remaining activity (%) was calculated, then IC50 was calculated by reverse presumption with a logistic model using a concentration and an inhibition rate.
For orientation: Liver microsomes are a subcellular fraction often used to study metabolism.

In another series the test system is HIV (HTLV-III B strain). Description: HIV replication inhibition assay (MTT, MT-4 cells). Type of series: cell-based. The note with it: Human immunodeficiency virus 1, MT4, 96 h, four days culture, concentration at which cell cytotoxicity by virus is inhibited 50%. The method, then: HIV (HTLV-III B strain) persistent infected human T cell strain Molt-4 clone 8 was cultured in 10% Fetal Bovine Serum-containing RPMI-1640 medium and the supernatant was filtrated, then the virus titer was measured and the solution was stored at −80° C. Each anti-human immunodeficiency virus active substance was diluted with the above cultured medium to the designated concentration, which was dispensed into 96 well micro plate by 50 μL. Next, a MT-4 cell suspended liquid was dispensed by 100 μL (2.5×10^4 cells), then the above HIV-containing supernatant diluted with the above cultured medium was added thereto by 50 μL (60 pfu (plaque forming unit)).
The obtained mixture was cultured at 37° C. in CO2 incubator for four days, then 3-(4,5-dimehylthiazole-2-yl)-2,5-diphenyltetrazolynium bromide (MTT) 5 mg/mL in PBS was added to each well by 30 μL, followed by 1 hr-cultivation. In this step, as formazan was precipitated by reduction of MTT in living cells, the cell supernatant was removed from all well by 150 μL, then a 150 μL of solution (10% Triton X-100 and […]) was added thereto, followed by shaking with a plate mixer, to elute formazan. The formazan was measured with a microreader at OD: 560 nm and 690 nm (wavelength) and the result was compared with the reference. EC50 means the compound concentration at which cell cytotoxicity by virus is inhibited 50%.

Series [1] deals with T2, human ether-a-go-go related gene (hERG) channel (Homo sapiens, UniProt Q12809).
T2 construct: expressed in transfected cells; host or cells: HEK293
The experiment in a line: hERG test, whole cell patch clamp. Type of series: cell-based. To be noted: HEK293 cells expressing hERG channel. The source says: For the purpose of assessing risk of an electrocardiogram QT interval prolongation, effects on delayed rectifier K+ current (IKr), which plays an important role in the ventricular repolarization process of the compound of the present invention, was studied using HEK293 cells expressing human ether-a-go-go related gene (hERG) channel.
After a cell was retained at a membrane potential of −80 mV by whole cell patch clamp method using an automated patch clamp system (PatchXpress 7000A, Axon Instruments Inc.), IKr induced by depolarization pulse stimulation at +40 mV for 2 seconds and, further, repolarization pulse stimulation at −50 mV for 2 seconds was recorded. […] From the recording IKr, an absolute value of the tail peak current was measured based on the current value at the resting membrane potential using an analysis software (DataXpress ver. 1, Molecular Devices Corporation). Further, the inhibition relative to the tail peak current before application of the test substance was calculated, and compared with the vehicle-applied group (0.1% dimethyl sulfoxide solution) to assess influence of the test substance on IKr.

T2 sequence (Q12809 whole entry): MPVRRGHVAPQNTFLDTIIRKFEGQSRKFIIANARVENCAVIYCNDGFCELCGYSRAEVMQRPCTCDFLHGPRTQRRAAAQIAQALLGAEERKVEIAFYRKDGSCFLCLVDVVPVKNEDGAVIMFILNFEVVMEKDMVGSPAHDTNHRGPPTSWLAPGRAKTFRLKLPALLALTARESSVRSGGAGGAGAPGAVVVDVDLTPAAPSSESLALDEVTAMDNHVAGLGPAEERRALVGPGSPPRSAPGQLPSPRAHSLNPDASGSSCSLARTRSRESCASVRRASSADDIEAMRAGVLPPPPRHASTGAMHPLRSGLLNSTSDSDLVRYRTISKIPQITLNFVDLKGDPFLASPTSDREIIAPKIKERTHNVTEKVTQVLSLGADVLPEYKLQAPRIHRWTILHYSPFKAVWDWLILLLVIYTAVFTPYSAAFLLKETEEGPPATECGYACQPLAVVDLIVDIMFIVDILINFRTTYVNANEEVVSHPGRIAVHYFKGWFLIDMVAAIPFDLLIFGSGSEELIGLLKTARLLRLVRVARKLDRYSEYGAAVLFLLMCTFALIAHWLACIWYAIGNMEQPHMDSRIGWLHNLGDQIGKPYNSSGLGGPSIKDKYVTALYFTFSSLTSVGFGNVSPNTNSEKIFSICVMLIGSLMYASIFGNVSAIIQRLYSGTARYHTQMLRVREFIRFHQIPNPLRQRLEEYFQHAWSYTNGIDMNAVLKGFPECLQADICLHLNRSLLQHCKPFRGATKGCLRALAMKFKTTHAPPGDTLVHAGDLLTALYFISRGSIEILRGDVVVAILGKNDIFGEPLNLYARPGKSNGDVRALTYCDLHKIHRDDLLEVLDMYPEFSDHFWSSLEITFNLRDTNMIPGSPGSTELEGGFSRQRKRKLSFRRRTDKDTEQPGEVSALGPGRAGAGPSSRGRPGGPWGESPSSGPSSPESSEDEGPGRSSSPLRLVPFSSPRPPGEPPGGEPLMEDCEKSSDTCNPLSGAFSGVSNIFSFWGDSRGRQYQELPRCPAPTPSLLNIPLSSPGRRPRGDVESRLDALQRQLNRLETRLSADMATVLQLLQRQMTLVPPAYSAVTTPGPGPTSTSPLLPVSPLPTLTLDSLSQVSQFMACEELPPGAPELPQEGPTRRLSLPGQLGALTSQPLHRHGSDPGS
T1 sequence (P33261 whole entry): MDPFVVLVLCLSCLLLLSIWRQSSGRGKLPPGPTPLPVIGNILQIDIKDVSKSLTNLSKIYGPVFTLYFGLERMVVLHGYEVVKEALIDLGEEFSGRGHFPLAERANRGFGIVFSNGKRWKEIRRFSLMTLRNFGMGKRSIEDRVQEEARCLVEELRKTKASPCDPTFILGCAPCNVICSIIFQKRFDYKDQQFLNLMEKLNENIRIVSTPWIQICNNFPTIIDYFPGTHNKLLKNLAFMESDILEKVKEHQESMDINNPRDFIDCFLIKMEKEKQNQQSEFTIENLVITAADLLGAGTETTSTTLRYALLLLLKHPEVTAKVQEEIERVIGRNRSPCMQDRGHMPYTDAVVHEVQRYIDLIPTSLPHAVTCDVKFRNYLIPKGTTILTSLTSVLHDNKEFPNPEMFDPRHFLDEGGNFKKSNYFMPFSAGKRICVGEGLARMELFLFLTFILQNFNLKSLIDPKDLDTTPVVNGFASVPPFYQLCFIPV

On CYP2C19, `CC(=O)Nc1c(C)c(C(OC(C)(C)C)C(=O)O)c(-c2ccc(C)c(C)c2)c(C)c1-c1ccc(C)c(C)c1` (stereo not drawn) [Compound I-6] came in with an IC50 at 15 min of at least 20000 nM. In addition, the EC50 in the series with HIV (HTLV-III B strain) was found to be 7.8 nM. The “inhibition ratio of IKr tail peak current” value in series [1] stood at 3.5%.

The record behind these values is US9199959B2, “HIV replication inhibitor” (Shionogi & Co., Ltd., priority 2011, dated 2015).
